Assay results from US20170050966A1, “INHIBITING THE TRANSIENT RECEPTOR POTENTIAL A1 ION CHANNEL” (HYDRA BIOSCIENCES, INC., priority 2014, published 2017).
Values after ≈ are worked out from the molar mass of the structure shown. Like-named read-outs stand apart in the source and are kept apart here.

How the values were obtained:
[1] = Solubility in Normal Ringer Solution; type: physicochemical; settings: aqueous buffer, kinetic from dmso stock, pH 7.4, room temperature
Procedure: Compounds of the invention were also tested for solubility in Normal Ringer Solution. […] Following vortex and incubation for 40 minutes at room temperature, solutions were filtered, quenched with acetonitrile, and analyzed by liquid chromatography. Solubility limits were determined by comparison to a standard curve. […] Solubility is reported as “greater than” if the observed increase between the last 2 dilutions tested is greater than 2-fold.

human TRPA1 (hTRPA1) = molecular target: T1, human TRPA1 (hTRPA1) (Homo sapiens, UniProt O75762); experiment: Inhibition of human TRPA1, whole-cell patch clamp; type: cell-based; settings: antagonist effect, whole cell patch configuration; read-out: hTRPA1
T1 construct: expressed in transfected cells
T1 sequence (O75762 whole entry): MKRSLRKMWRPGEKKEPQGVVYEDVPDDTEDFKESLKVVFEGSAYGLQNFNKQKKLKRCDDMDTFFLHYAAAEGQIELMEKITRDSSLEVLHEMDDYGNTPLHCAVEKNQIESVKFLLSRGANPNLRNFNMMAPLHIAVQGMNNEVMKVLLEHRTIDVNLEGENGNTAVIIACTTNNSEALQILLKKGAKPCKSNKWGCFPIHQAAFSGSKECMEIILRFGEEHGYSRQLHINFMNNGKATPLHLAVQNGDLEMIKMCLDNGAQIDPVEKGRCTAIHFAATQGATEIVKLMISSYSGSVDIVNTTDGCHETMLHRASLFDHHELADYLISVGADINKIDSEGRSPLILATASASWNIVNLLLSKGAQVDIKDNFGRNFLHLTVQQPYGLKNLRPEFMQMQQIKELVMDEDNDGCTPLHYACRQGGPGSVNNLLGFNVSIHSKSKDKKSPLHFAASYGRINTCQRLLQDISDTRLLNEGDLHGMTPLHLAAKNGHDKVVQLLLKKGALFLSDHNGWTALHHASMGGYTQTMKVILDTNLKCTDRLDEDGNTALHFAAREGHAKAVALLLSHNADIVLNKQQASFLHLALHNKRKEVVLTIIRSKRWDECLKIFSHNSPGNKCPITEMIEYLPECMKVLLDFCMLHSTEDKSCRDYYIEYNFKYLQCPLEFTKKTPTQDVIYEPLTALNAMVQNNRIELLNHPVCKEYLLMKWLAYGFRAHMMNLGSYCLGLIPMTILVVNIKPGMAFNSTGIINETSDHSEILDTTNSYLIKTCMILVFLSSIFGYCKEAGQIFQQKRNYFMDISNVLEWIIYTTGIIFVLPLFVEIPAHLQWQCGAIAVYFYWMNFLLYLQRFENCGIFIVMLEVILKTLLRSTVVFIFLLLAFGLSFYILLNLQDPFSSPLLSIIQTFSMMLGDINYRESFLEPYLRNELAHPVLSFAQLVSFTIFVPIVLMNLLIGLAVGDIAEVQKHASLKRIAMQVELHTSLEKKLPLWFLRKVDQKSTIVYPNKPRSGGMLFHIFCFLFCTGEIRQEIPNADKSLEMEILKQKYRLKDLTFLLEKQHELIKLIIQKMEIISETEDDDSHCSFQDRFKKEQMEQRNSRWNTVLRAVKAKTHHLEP
Procedure: Data for TRPA1 inhibition was obtained by this method for the indicated compounds of Formula (I), with the relevant data included in Table 14 below. All currents were recorded in whole-cell configuration using EPC-9 and EPC-10 amplifiers and Patchmaster software (HEKA). […] The standard pipette solution consisted of 140 mM CsAsp, 10 mM EGTA, 10 mM HEPES, […], 1.91 mM CaCl2, and up to 0.3 mM Na2GTP, with pH adjusted to 7.2 with CsOH. In addition, a solution containing 145 mM CsCl, 10 mM HEPES, 10 mM EGTA, and up to 0.3 mM Na2GTP and 1 mM MgCl2 (pH 7.2 adjusted with CsOH) can be used. The standard bath solution contained 150 mM NaCl, 10 mM HEPES, 10 mM glucose, 4.5 mM KCl, 1 mM EGTA, 3 mM MgCl2, with pH adjusted to 7.4 with NaOH. In some instances, 2 mM CaCl2 was added in place of EGTA and the concentration of MgCl2 was reduced to 1 mM.
Data were collected either by continuous recordings at −60 mV or by applying voltage ramps from a holding potential of 0 mV every 4 s. Continuous recordings were collected at 400 Hz and digitally filtered off-line at 10 Hz for presentation. Voltage ramps were applied from −100 mV to 100 mV over the course of 400 ms, and data were collected at 10 kHz and filtered at […]. Inward and outward currents were analyzed from the ramps at −80 and 80 mV, respectively. Liquid junction potential correction was not used.
Solutions were switched using a gravity-fed continuous focal perfusion system. To achieve rapid temperature changes, two temperature control, and perfusion systems were employed simultaneously. For temperatures greater than or equal to 22° C., a Warner Instruments bipolar temperature controller (TC-344B) and inline heater (SHM-8) were used. […] Temperatures were confirmed using a thermistor (Warner Instruments, TA-29), with temperatures at the recorded cell estimated to be within +/−2° C. of those reported.
The antagonist effects of compounds of Formula (I) against human TRPA1 (“hTRPA1”) in a whole cell patch configuration were evaluated using the in vitro assay protocol described above.

[2] = Metabolic stability in liver microsomes; type: in vitro ADME, human; settings: 1 μM test compound; for half-life at 1 μM: human, liver microsomes, 37° C.
Procedure: (§1) Metabolic stability of the compounds of Formula (I) was determined by standard liver microsome assays. Briefly, metabolic stability was tested by adding the compound to be tested dissolved in DMSO to human, dog, or rat liver microsomes. Assays were run with a starting concentration of 1 μM test compound. The reaction was initiated by addition of nicotinamide adenine dinucleotide phosphate[…] (NADPH) regeneration components at 37° C., at which time an aliquot was immediately quenched in an ice-cold acetonitrile/methanol/water solution. Reaction mixture was incubated at 37° C. on a shaker, and additional aliquots were taken at 7, 15, 30 and 60 minutes. Following quench and centrifugation, samples were analyzed on HPLC/MS/MS.

[3] = Metabolic stability in liver microsomes; type: in vitro ADME
Procedure: as §1

[4] = Oral bioavailability of solutions in non-fasted rats; settings: rat, in vivo, oral solution, read-out: Rat % F
Procedure: Early bioavailability studies in rat were conducted with solutions of the compounds of the invention. Compounds were delivered via oral administration as a solution in an appropriate excipient. Example formulations include, but are not limited to: 4% DMSO, 10% Solutol HS-15, and 86% water or 4% DMSO, 5% Tween, 25% Cremophor EL. Target concentrations were typically 1 mg/mL, and administered via oral gavage to non-fasted rats. The absolute bioavailability is the dose-corrected area under the curve (AUC) non-intravenous divided by the dose corrected AUC intravenous. The formula for calculating F for a drug administered by the oral route (PO) is given below:
% F=AUC PO×Dose IV/AUC IV×Dose PO

[5] = Kinetic solubility in buffered solutions; type: physicochemical; settings: aqueous buffer, kinetic from dmso stock, 24 hours ambient
Procedure: The solubilities of the compounds of Formula (I) were tested using the procedure outlined in Kerns, E. H., J Pharm Sci (2001) 90:1838-1858, incorporated herein by reference and described below. Data for solubility was obtained by this method for compounds of Formula (I) and included in Table 3. The chromatographic data was performed by HPLC using an Xbridge Shield RP18 column with the following column dimensions: 4.6×30 mm, 3.5 μm. The mobile phase consisted of deionized water (MPA) with trifluoroacetic acid added in at 0.1% (v/v) (MPC) and HPLC-grade acetonitrile (MPB). The mobile phase flow rate was 2.5 mL/min with the column and sampling operating at ambient temperature. UV detection was set to 280 nm.
Samples for analysis of the compounds of Formula (I) were prepared at a % v/v=1/19 (i.e., 10 μL of the stock solution into 190 μL of buffer) by spiking stock solutions of the compounds of Formula (I) into buffered solutions. Three buffered solution systems were prepared: pH 4.0 prepared from 50 mM sodium acetate in a 5% dextrose in water solution, pH 7.4 prepared from 75 mM sodium phosphate in a 1:1 ratio of sterilized water for injection to a 5% dextrose in water solution, and pH 9.0 prepared from 50 mM sodium bicarbonate in a 1:2 ratio of sterilized water for injection to a 5% dextrose in water solution. The samples were incubated on a microplate shaker at 300 rpm for 24 hours at ambient temperature. Following incubation, the samples were centrifuged for five minutes at 13 k rpm at ambient temperature. The resulting supernantant was extracted for HPLC analysis.

CYP2C8 = CYP2C8 (Homo sapiens, UniProt P10632); experiment: in vitro; settings: probe Amodiaquine
Chain of CYP2C8 (P10632 whole entry): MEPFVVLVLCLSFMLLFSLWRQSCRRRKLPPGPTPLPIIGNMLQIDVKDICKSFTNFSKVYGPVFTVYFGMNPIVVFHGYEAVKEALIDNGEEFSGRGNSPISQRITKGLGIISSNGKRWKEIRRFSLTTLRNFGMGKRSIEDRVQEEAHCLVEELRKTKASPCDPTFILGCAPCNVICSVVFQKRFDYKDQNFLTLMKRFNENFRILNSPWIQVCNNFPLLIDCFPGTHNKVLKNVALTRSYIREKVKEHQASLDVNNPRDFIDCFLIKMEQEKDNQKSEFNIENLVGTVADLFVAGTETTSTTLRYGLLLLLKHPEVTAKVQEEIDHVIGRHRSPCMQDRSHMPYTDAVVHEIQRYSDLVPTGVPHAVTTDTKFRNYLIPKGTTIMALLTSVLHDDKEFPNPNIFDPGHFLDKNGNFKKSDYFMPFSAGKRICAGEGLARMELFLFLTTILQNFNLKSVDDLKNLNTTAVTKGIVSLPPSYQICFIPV

CYP2B6 = CYP2B6 (Homo sapiens, UniProt P20813); experiment: in vitro; settings: probe Buproprion
Chain of CYP2B6 (P20813 whole entry): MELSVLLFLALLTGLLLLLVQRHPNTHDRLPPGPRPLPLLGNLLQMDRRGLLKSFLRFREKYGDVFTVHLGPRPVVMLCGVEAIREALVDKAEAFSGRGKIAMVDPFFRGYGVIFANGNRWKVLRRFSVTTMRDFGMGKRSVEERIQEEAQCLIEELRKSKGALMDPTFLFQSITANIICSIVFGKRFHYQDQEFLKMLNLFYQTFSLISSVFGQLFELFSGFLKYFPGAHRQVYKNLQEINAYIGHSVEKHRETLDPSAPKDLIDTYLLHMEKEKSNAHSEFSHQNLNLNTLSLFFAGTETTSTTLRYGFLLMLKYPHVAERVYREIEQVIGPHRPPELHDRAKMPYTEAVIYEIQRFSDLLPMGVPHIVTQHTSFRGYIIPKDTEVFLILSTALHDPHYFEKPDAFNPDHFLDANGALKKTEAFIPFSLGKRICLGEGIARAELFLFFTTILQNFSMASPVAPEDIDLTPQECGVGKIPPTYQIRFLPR

in vitro = settings: plasma
Procedure: With this method, free compound is separated from protein-bound compound by dialysis across a semi-permeable membrane.
The protein binding was tested at a concentration of 1 μM. Pooled human, cynomolgus monkey, dog, and rat K2EDTA plasma was thawed and centrifuged at 2000×g for 10 minutes at 4° C. to remove particulates; any lipid on the top of the supernatant was also removed by aspiration. The plasma was warmed to 37° C. for 10 minutes before use. Test compounds were spiked into 2 ml plasma in a polypropylene plate to a final concentration of 1 μM. Triplicate 400 μl aliquots of spiked plasma were transferred into the Thermo RED dialysis units and dialyzed against 600 μl of PBS buffer. […] After 6 hours dialysis, triplicate 50 μl aliquots were removed from the RED plate, matrix-matched with either PBS buffer or blank plasma, as appropriate, and quenched with 4 volumes of ACN containing an internal standard. The extracted samples were then centrifuged at 2000×g for 5 minutes at 4° C. The supernatant (50 μl) was removed and diluted with 100 μl water prior to LC/MS/MS bioanalysis.

[6] = dog liver microsomes, both sexes, read-out: Half-Life both sexes
[7] = rat liver microsomes, both sexes, read-out: Half-Life Both sexes
[8] = sodium acetate buffer, pH 4.0, 50 mM sodium acetate, read-out: pH 4.0 solubility
[9] = sodium bicarbonate buffer, pH 9.0, 50 mM sodium bicarbonate, read-out: pH 9.0 solubility
[10] = sodium phosphate buffer, pH 7.4, 75 mM sodium phosphate, read-out: pH 7.4 solubility
[11] = rat liver microsomes, male, read-out: Male Half-Life

Row | solubility at 40 min [1] [µM] | IC50 (human TRPA1 (hTRPA1)) [nM] | half-life at 1 μM [2] [min] | half-life at 1 μM [3, 7] [min] | Structure (SMILES) | other results
1 | 4.37 (≈ 2.32 µg/mL) | 663 | 37.8 | 113 | C[C@@H](C(=O)Nc1ccnc(-c2cnc(N3CCC[C@H]3C(F)(F)F)nc2)n1)n1cnc2[nH]c(=O)n(C)c(=O)c21 [Compound 5, (S)-2-(1-methyl-2,6-dioxo-2,3-dihydro-1H-purin-7(6H)-yl)-N-(2′-((S)-2-(trifluoromethyl)pyrrolidin-1-yl)-[2,5′-bipyrimidin]-4-yl)propanamide] | half-life at 1 μM [3, 6]: > 120 min
2 | ~23 (≈ 13.4 µg/mL) | 29.7 | 27.4 | 118 | C[C@@H](C(=O)Nc1ccnc(-c2cnc(N3CCC[C@H]3C(F)(F)F)nc2)n1)n1cnc2c1c(=O)n(C)c(=O)n2C(F)F [Compound 6, (S)-2-(3-(difluoromethyl)-1-methyl-2,6-dioxo-2,3-dihydro-1H-purin-7(6H)-yl)-N-(2′-((S)-2-(trifluoromethyl)pyrrolidin-1-yl)-[2,5′-bipyrimidin]-4-yl)propanamide] | –
3 | > 77.6 | 62.9 | > 60 | 60 | C[C@@H](C(=O)Nc1ccnc(-c2cnc(N3CC(C(F)(F)F)C3)nc2)n1)n1cnc2c1c(=O)n(C)c(=O)n2C [Compound 13, (S)-2-(1,3-dimethyl-2,6-dioxo-2,3-dihydro-1H-purin-7(6H)-yl)-N-(2′-(3-(trifluoromethyl)azetidin-1-yl)-2,5′-bipyrimidin-4-yl)propanamide] | –
4 | > 47 | 24.9 | 52.4 | – | C[C@@H](C(=O)Nc1ccnc(-c2cnc(N3CCC(C(F)(F)F)C3)nc2)n1)n1cnc2c1c(=O)n(C)c(=O)n2C (stereo partly drawn) [Compound 16, (2S)-2-(1,3-dimethyl-2,6-dioxo-2,3-dihydro-1H-purin-7(6H)-yl)-N-(2′-(3-(trifluoromethyl)pyrrolidin-1-yl)-2,5′-bipyrimidin-4-yl)propanamide] | –
5 | – | 51 | 30 | – | C[C@H]1CCCN1c1ncc(-c2nccc(NC(=O)[C@H](C)n3cnc4c3c(=O)n(C)c(=O)n4C)n2)cn1 [Compound 21, (S)-2-(1,3-dimethyl-2,6-dioxo-2,3-dihydro-1H-purin-7(6H)-yl)-N-(2′-((S)-2-methylpyrrolidin-1-yl)-[2,5′-bipyrimidin]-4-yl)propanamide] | solubility kinetic at 24 h [5, 8]: 34 µg/mL (≈ 69.3 µM); solubility kinetic at 24 h [5, 9]: 10.5 µg/mL (≈ 21.4 µM); solubility kinetic at 24 h [5, 10]: 20 µg/mL (≈ 40.8 µM); Human Liver Microsomes Hepatic Clearance [2]: 10.5 mL/min/kg; Female Hepatic Clearance ([3]; dog liver microsomes, female): 8 mL/min/kg; half-life at 1 μM ([3]; dog liver microsomes, female, read-out: Female Half-Life): 66 min; Hepatic Clearance ([3]; rat liver microsomes): 11 mL/min/kg; Male Hepatic Clearance ([3]; rat liver microsomes, male): 34 mL/min/kg; half-life at 1 μM [3, 11]: 16 min

The remaining lines, values behind:

Row | Structure (SMILES) | solubility at 40 min [1] [µM] | IC50 (human TRPA1 (hTRPA1)) [nM] | half-life at 1 μM [2] [min] | half-life at 1 μM [3, 7] [min] | other results
6 | C[C@@H](C(=O)Nc1ccnc(-c2cnc(N3CC4CC4C3)nc2)n1)n1cnc2c1c(=O)n(C)c(=O)n2C (stereo partly drawn) [Compound 15, (2S)—N-(2′-(3-azabicyclo[3.1.0]hexan-3-yl)-2,5′-bipyrimidin-4-yl)-2-(1,3-dimethyl-2,6-dioxo-2,3-dihydro-1H-purin-7(6H)-yl)propanamide] | 16.3 (≈ 7.96 µg/mL) | 26.7 | 88.8 | 72.7 | bioavailability [4]: 35%
7 | C[C@H]1CCCN1c1ncc(-c2nccc(NC(=O)Cn3cnc4c3c(=O)n(C)c(=O)n4C)n2)cn1 [Compound 19, (S)-2-(1,3-dimethyl-2,6-dioxo-2,3-dihydro-1H-purin-7(6H)-yl)-N-(2′-(2-methylpyrrolidin-1-yl)-2,5′-bipyrimidin-4-yl)acetamide] | > 18.2 | 96.1 | 50 | 63.8 | bioavailability [4]: 77%; solubility kinetic at 24 h [5, 8]: 6 µg/mL (≈ 12.6 µM); solubility kinetic at 24 h [5, 9]: 3.5 µg/mL (≈ 7.35 µM); solubility kinetic at 24 h [5, 10]: 10 µg/mL (≈ 21 µM); Human Liver Microsomes Hepatic Clearance [2]: 9 mL/min/kg; Hepatic Clearance ([3]; dog liver microsomes): 11 mL/min/kg; half-life at 1 μM [3, 6]: 44 min; Male Hepatic Clearance ([3]; rat liver microsomes, male): 25 mL/min/kg; half-life at 1 μM [3, 11]: 36 min
8 | C[C@@H](C(=O)Nc1ccnc(-c2cnc(N3CC4C(C3)C4(F)F)nc2)n1)n1cnc2c1c(=O)n(C)c(=O)n2C (some centres unmarked) [Compound 26] | > 15.1 | – | – | – | –
9 | O=c1c(O)c(-c2ccc(O)c(O)c2)oc2cc(O)cc(O)c12 [Quercetin, reference compound] | – | – | – | – | inhibition at 10 µM (CYP2C8): 61.5%
10 | Clc1ccccc1CN1CCc2sccc2C1 [Ticlopidine, reference compound] | – | – | – | – | inhibition at 10 µM (CYP2B6): 98.2%
11 | CC(=O)CC(c1ccccc1)c1c(O)c2ccccc2oc1=O (centres unmarked) [Warfarin, reference compound] | – | – | – | – | fraction unbound at 6 h, 1 μM (in vitro; beagle, dog): 0.065; fraction unbound at 6 h, 1 μM (in vitro; cynomolgus monkey): 0.011
